From ChEMBL document CHEMBL1141700, “Discovery of the catechol structural moiety as a Stat3 SH2 domain inhibitor by virtual screening” (Bioorg Med Chem Lett, 2008)
Calls of active or inactive are those of the source. The rule behind the calls is not given here.

Assays:
[1] = target: T1, Signal transducer and activator of transcription 3 (Homo sapiens, UniProt P40763); assay: Inhibition of Stat3 binding to DNA in human U266 whole cell lysate at 100 ug/ml by ELISA; format: cell-free; settings: U-266
T1 sequence (P40763 whole entry): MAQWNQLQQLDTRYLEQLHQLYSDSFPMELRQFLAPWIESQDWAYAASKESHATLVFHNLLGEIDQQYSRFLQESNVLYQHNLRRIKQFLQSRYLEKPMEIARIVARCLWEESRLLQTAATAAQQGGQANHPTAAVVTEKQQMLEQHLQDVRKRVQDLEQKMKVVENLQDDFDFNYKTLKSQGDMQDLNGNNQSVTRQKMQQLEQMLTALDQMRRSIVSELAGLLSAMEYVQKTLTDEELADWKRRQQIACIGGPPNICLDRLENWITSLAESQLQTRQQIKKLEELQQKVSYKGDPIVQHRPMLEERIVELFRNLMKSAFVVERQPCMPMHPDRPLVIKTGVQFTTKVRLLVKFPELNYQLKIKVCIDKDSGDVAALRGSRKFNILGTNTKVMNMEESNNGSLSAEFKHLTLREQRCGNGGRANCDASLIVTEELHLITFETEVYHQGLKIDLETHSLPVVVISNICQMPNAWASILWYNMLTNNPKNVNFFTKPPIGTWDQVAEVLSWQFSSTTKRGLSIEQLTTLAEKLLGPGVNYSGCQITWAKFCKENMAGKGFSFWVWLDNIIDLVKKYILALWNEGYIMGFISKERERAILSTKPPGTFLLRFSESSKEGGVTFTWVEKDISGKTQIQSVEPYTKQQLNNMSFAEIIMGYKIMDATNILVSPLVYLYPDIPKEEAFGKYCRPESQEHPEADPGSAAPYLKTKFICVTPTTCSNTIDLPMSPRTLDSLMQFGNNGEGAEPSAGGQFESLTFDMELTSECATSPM

[2] = target: T1, Signal transducer and activator of transcription 3; assay: Inhibition of Stat3 binding to DNA in human U266 whole cell lysate by ELISA; format: cell-free, U-266
[3] = target: Signal transducer and activator of transcription 3 (Mus musculus) (UniProt P42227); assay: Displacement of pTyr705 from flag-tagged mouse Stat3 SH2 domain expressed in HEK293 cells up to 200 uM by fluorescence polarization
Chain of Signal transducer and activator of transcription 3 (Mus musculus) (P42227 whole entry, the tested form may be a part): as the sequence (P40763 whole entry) above, with E760D counted along it

[4] = target: T1, Signal transducer and activator of transcription 3; assay: Inhibition of Stat3 phosphorylation in human U266 whole cell lysate by Western blotting; format: cell-based; settings: U-266

Row | inhibition [1] | IC50 [2] | Activity [3] | Activity [4] | SMILES
1 | 50% |  |  |  | Oc1ccc(CC/N=C/c2c(O)ccc3ccccc23)cc1O
2 |  | 106 µM |  |  | Cc1oc(C)c2c(=O)cc(-c3ccc(O)c(O)c3)cc(O)c12
3 | 57% |  |  |  | O=C(c1ccc(O)c(O)c1)c1cnc(NCc2ccc(F)cc2)s1
4 | 40% | 357 µM | inactive | Active | O=C(Cc1ccc2c(c1)OCO2)NCCc1ccc(O)c(O)c1
5 | 51% |  |  |  | Oc1ccc(CC/N=C/c2cccc(O)c2O)cc1O
6 | 8% |  |  |  | O=C(O)c1ccccc1/N=C\c1ccc(O)c(O)c1
7 | 56% |  |  |  | Oc1cccc(-c2nc3ccccc3s2)c1O
